Laboratory results: US9403801B2 (Calitor Sciences, LLC, priority 2014, dated 2016)

Legend:
JAK1 (h) = JAK1 (h) (Homo sapiens (Human), UniProt P23458); experiment: JAK1 kinase assay (33P-ATP filter binding, Millipore); format: biochemical
Procedure: (§1) Kinase assays can be performed by measurement of incorporation of γ-^33P ATP into immobilized myelin basic protein (MBP). High binding white 384 well plates (Greiner) are coated with MBP (Sigma #M−1891) by incubation of 60 μL/well of 20 μg/mL MBP in Tris-buffered saline (TBS; 50 mM Tris pH 8.0, 138 mM NaCl, 2.7 mM KCl) for 24 h at 4° C. Plates are washed 3× with 100 μL TBS. Kinase reactions are carried out in a total volume of 34 μL in kinase buffer (5 mM Hepes pH 7.6, 15 mM NaCl, 0.01% bovine gamma globulin (Sigma #I-5506), 10 mM MgCl2, 1 mM DTT, 0.02% TritonX-100). Compound dilutions are performed in DMSO and added to assay wells to a final DMSO concentration of 1%. Each data point is measured in duplicate, and at least two duplicate assays are performed for each individual compound determination. Enzyme is added to final concentrations of 10 nM or 20 nM, for example. A mixture of unlabeled ATP and γ-^33P ATP is added to start the reaction (2×10^6 cpm of γ-^33P ATP per well (3000 Ci/mmole) and 10 μM unlabeled ATP, typically. The reactions are carried out for 1 h at room temperature with shaking. Plates are washed 7× with TBS, followed by the addition of 50 μL/well scintillation fluid (Wallac). Plates are read using a Wallac Trilux counter. This is only one format of such assays; various other formats are possible, as known to one skilled in the art.
(§2) The above assay procedure can be used to determine the IC50 for inhibition and/or the inhibition constant, Ki. The IC50 is defined as the concentration of compound required to reduce the enzyme activity by 50% under the condition of the assay. The IC50 value is estimated by preparing a 10 point curve using a 1/2 log dilution series (for example, a typical curve may be prepared using the following compound concentrations: 3 μM, 1 μM, 0.3 μM, 0.1 μM, 0.03 μM, 0.01 μM, 0.003 μM, 0.001 μM, 0.0003 μM and 0 μM).
(§3) The kinase assays described herein were performed at Millipore UK Ltd, Dundee Technology Park, Dundee DD2 1SW, UK.

JAK2 (h) = JAK2 (h) (Homo sapiens (Human), UniProt O60674); experiment: JAK2 kinase assay (33P-ATP filter binding, Millipore); format: biochemical
JAK2 (h), sequence (O60674 whole entry): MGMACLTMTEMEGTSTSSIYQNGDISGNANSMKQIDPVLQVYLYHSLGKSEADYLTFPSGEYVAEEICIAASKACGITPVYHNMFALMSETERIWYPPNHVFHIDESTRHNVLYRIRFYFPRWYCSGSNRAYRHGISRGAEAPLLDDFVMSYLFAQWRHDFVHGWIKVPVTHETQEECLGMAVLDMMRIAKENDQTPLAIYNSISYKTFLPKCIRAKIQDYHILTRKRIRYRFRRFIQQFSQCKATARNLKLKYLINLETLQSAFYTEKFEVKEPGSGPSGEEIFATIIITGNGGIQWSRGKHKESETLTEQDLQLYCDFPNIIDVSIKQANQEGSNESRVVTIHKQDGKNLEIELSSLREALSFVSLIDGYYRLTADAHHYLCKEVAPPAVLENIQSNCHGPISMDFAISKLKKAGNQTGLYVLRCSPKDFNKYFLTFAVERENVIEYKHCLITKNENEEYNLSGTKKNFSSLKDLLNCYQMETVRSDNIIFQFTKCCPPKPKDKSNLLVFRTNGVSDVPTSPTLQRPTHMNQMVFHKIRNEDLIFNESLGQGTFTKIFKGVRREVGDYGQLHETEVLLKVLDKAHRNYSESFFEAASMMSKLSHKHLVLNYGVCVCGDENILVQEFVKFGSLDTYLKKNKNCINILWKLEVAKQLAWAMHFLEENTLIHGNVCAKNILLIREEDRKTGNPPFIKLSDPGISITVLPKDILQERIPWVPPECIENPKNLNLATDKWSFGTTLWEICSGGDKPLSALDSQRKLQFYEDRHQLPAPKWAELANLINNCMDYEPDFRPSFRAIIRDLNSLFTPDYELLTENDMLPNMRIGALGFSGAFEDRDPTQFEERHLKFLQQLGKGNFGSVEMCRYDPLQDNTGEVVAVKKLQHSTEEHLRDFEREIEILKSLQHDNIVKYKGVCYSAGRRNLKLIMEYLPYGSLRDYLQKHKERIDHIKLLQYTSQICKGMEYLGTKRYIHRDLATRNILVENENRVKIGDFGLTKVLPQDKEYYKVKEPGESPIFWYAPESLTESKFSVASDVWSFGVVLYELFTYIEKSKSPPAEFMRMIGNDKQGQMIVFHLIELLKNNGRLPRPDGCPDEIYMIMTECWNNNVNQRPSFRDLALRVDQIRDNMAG
Procedure: as §1, §2, §3

[1] = Compound stability in human liver microsomes; format: in vitro ADME; settings: for half-life at 5 μM: compound 5 μM, NADPH 1.0 mM, 37° C.; for CLint scaled at 5 μM: in vivo CLint extrapolated
Procedure: (§4) Human or rat liver microsomes incubations were conducted in duplicate in polypropylene tubes. The typical incubation mixtures consisted of human or rat liver microsomes (0.5 mg protein/mL), compounds of interest (5 μM) and NADPH (1.0 mM) in a total volume of 200 μL potassium phosphate buffer (PBS, 100 mM, pH 7.4). Compounds were dissolved in DMSO and diluted with PBS such that the final concentration of DMSO was 0.05%. The enzymatic reactions were commenced with the addition of protein after a 3-min preincubation and incubated in a water bath open to the air at 37° C. Reactions were terminated at various time points (0, 5, 10, 15, 30, 60 min) by adding equal volume of ice-cold acetonitrile. The samples were stored at −80° C. until LC/MS/MS assays.
(§5) The concentrations of compounds in the incubation mixtures of human or rat liver microsomes were determined by a LC/MS/MS method. The ranges of the linearity in the concentration range were determined for each tested compounds.
(§6) A parallel incubation was performed using denatured microsomes as the negative control, and reactions were terminated at various time points (0, 15, 60 min) after incubation at 37° C.
(§7) Dextromethorphan (70 μM) was selected as the positive control, and reactions were terminated at various time points (0, 5, 10, 15, 30, 60 min) after incubation at 37° C. Both positive and negative control samples were included in each assay to ensure the integrity of the microsomal incubation system.
(§8) The concentrations of compounds in human or rat liver microsome incubations were plotted as a percentage of the relevant zero time point control for each reaction. The in vivo CLint were extrapolated (ref.: Naritomi, Y.; Terashita, S.; Kimura, S.; Suzuki, A.; Kagayama, A.; and Sugiyama, Y.; Prediction of human hepatic clearance from in vivo animal experiments and in vitro metabolic studies with liver microsomes from animals and humans. Drug Metab. Dispos., 2001, 29: 1316-1324).

[2] = Compound stability in rat liver microsomes; format: in vitro ADME; settings: for half-life at 5 μM: compound 5 μM, NADPH 1.0 mM, 37° C.; for CLint scaled at 5 μM: in vivo CLint extrapolated
Procedure: as §4, §5, §6, §7, §8

[3] = Pharmacokinetics after intravenous and oral administration in rats; format: in vivo; settings: for Clearance (CL) after iv dosing / AUC(0-t) / half-life / Vd: dose 1 mg/kg (Ex. 27: 0.72 mg/kg), iv dosing; for F: oral bioavailability; for AUC(0-t) / half-life / Vd: rat, plasma; for Vd: read-out: Vss
Procedure: The LC/MS/MS system used in the analysis consists of an Agilent 1200 Series vacuum degasser, binary pump, well-plate autosampler, thermostatted column compartment, the Agilent G6430 Triple Quadrupole Mass Spectrometer with an electrosprayionization (ESI) source. Quantitative analysis was carried out using MRM mode. The parameters for MRM transitions are in the Table A.
An Agilent XDB-C18, 2.1×30 mm, 3.5 μM column was used for the analysis. 5 μL of the samples were injected. Analysis condition: The mobile phase was 0.1% formic acid in water (A) and 0.1% formic acid in methanol (B). The flow rate was 0.4 mL/min. And the gradient of Mobile phase was in the Table B.
Alternatively, an Agilent 6330 series LC/MS/MS spectrometer equipped with G1312A binary pumps, a G1367A autosampler and a G1314C UV detector were used in the analysis. An ESI source was used on the LC/MS/MS spectrometer. The analysis was done in positive ion mode as appropriate and the MRM transition for each analyte was optimized using standard solution. A Capcell MP-C18 100×4.6 mm I.D., […] column (Phenomenex, Torrance, Calif., USA) was used during the analysis. The mobile phase was 5 mM ammonia acetate, 0.1% MeOH in water (A): 5 mM ammonia acetate, 0.1% MeOH in acetonitrile (B) (70:30, v/v). The flow rate was 0.6 mL/min. Column was maintained at ambient temperature. 20 μL of the samples were injected.
The compounds disclosed herein are assessed in pharmacokinetic studies in mice, rats, dogs or monkeys. The compounds are administered as a water solution, 2% HPMC+1% TWEEN®80 in water solution, 5% DMSO+5% solution in saline, 4% MC suspension or capsule. For the intravenous administration, the animals are generally given at 1 or 2 mg/kg dose. For the oral (p.o.) dosing, mice and rats are generally given 5 or 10 mg/kg dose, and dogs and monkeys are generally given 10 mg/kg dose. The blood samples (0.3 mL) are drawn at 0.25, 0.5, 1.0, 2.0, 3.0, 4.0, 6.0, 8.0, 12 and 24 h time points or 0.083, 0.25, 0.5, 1.0, 2.0, 4.0, 6.0, 8.0 and 24 h time points and centrifuged at 3,000 or 4000 rpm for 2 to 10 min. The plasma solutions are collected, and stored at −20° C. or −70° C. until analyzed by LC/MS/MS as described above.

[4] = human, liver microsomes, pH 7.4, Human liver microsomes 0.5 mg protein/mL
[5] = human, liver microsomes, pH 7.4, Human liver microsomes
[6] = rat, liver microsomes, pH 7.4, Rat liver microsomes 0.5 mg protein/mL
[7] = rat, liver microsomes, pH 7.4, Rat liver microsomes
[8] = pH 7.4, Human liver microsomes 0.5 mg protein/mL
[9] = pH 7.4, Rat liver microsomes 0.5 mg protein/mL

JAK1 (h), sequence (P23458 whole entry): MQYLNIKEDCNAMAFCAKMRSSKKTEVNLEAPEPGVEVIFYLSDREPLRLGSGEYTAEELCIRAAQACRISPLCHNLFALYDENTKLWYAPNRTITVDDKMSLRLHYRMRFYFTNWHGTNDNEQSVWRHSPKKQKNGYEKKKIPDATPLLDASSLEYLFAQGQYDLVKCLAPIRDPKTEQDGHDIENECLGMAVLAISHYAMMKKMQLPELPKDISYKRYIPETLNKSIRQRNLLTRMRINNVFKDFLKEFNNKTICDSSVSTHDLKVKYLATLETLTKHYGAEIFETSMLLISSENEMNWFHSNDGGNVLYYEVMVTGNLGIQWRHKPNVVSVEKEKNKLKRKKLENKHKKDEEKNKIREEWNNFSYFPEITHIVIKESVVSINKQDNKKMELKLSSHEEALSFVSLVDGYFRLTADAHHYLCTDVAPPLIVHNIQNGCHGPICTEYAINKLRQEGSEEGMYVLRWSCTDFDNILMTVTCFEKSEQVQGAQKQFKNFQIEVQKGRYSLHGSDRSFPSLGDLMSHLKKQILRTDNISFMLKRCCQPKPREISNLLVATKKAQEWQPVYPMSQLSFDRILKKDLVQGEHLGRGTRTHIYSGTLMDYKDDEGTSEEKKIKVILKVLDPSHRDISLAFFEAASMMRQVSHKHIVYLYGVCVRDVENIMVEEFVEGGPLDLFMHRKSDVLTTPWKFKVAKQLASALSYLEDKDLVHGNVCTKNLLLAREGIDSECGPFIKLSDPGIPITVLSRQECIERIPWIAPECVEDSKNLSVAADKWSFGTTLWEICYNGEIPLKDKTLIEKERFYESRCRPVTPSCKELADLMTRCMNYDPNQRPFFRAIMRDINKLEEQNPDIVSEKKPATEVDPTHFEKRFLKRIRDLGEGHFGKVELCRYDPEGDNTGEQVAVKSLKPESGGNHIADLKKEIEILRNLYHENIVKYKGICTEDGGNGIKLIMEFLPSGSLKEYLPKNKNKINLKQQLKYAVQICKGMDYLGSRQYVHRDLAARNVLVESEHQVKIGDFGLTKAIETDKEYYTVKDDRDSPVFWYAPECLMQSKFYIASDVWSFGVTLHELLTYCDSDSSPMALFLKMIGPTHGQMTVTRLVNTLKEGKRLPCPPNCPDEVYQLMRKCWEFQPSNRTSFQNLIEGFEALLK

| IC50 (JAK1 (h)) [nM] | IC50 (JAK2 (h)) [nM] | Clearance (CL) after iv dosing [3] [mL/min/kg] | F [3] [%] | AUC(0-t) [3] [ng·h/mL] | half-life [3] [min] | Vd [3] [L/kg] | Structure (SMILES) | other results |
| --- | --- | --- | --- | --- | --- | --- | --- | --- |
| 2 | 6 |  |  |  |  |  | Cn1cc(Nc2ncc(Cl)c(NC3CCC4(CC3)CCN(C(=O)CC#N)CC4)n2)cn1 [Ex. 26, 3-(9-((5-chloro-2-((1-methyl-1H-pyrazol-4-yl)amino)pyrimidin-4-yl)amino)-3-azaspiro[5.5]undecan-3-yl)-3-oxopropanenitrile] |  |
| 2 | 14 |  |  |  |  |  | Cn1cc(Nc2ncc(Cl)c(NC3CCC4(CCNC4)CC3)n2)cn1 (single isomer, unassigned) [Ex. 13.3B, 5-chloro-N^2-(1-methyl-1H-pyrazol-4-yl)-N^4-(2-azaspiro[4.5]decan-8-yl)pyrimidine-2,4-diamine] |  |
| 2 | 17 |  |  |  |  |  | Cn1cc(Nc2ncc(Cl)c(NC3CC4CN(C(=O)C(F)(F)F)CC4C3)n2)cn1 (stereo not shown) [Ex. 34, 1-(5-((5-chloro-2-((1-methyl-1H-pyrazol-4-yl)amino)pyrimidin-4-yl)amino)hexahydrocyclopenta[c]pyrrol-2(1H)-yl)-2,2,2-trifluoroethanone] | half-life at 5 μM [1, 8]: 19 min; CLint scaled at 5 μM ([1]; pH 7.4, Human liver microsomes): 91.6 mL/min/kg; half-life at 5 μM [2, 9]: 2.31 min; CLint scaled at 5 μM ([2]; pH 7.4, Rat liver microsomes): 1080 mL/min/kg |
| 20 | 371 |  |  |  |  |  | Cn1cnc(Nc2ncc(Cl)c(NC3CC4CN(C(=O)CC#N)CC4C3)n2)c1 (stereo not shown) [Ex. 41] |  |
| 19 | 39 |  |  |  |  |  | CN(c1nc(Nc2cnn(C)c2)ncc1Cl)C1CCC2(CC1)CCN(C(=O)CC#N)CC2 [Ex. 24, 3-(9-((5-chloro-2-((1-methyl-1H-pyrazol-4-yl)amino)pyrimidin-4-yl)(methyl)amino)-3-azaspiro[5.5]undecan-3-yl)-3-oxopropanenitrile] |  |
| 0.4 | 3 | 24.8 | 60.4 | 702 | 147 | 3.33 | Cn1cc(Nc2ncc(Cl)c(NC3CC4CN(c5ccc(C#N)cn5)CC4C3)n2)cn1 (stereo not shown) [Ex. 33, 6-(5-((5-chloro-2-((1-methyl-1H-pyrazol-4-yl)amino)pyrimidin-4-yl)amino)hexahydrocyclopenta[c]pyrrol-2(1H)-yl)nicotinonitrile] |  |
| 2 |  | 53.2 | 48.1 | 315 | 24.6 | 1.31 | Cc1nn(C)cc1Nc1ncc(Cl)c(NC2CC3CN(C(=O)CC#N)CC3C2)n1 (stereo not shown) [Ex. 64, 3-(5-((5-chloro-2-((1,3-dimethyl-1H-pyrazol-4-yl)amino)pyrimidin-4-yl)amino)hexahydrocyclopenta[c]pyrrol-2(1H)-yl)-3-oxopropanenitrile] | half-life at 5 μM [1, 8]: 62.8 min; CLint scaled at 5 μM ([1]; pH 7.4, Human liver microsomes): 27.7 mL/min/kg; half-life at 5 μM [2, 9]: 33.6 min; CLint scaled at 5 μM ([2]; pH 7.4, Rat liver microsomes): 74 mL/min/kg |
| 2 | 55 |  |  |  |  |  | Cn1cc(Nc2ncc(Cl)c(NC3CCC4(CCNC4)CC3)n2)cn1 (single isomer, unassigned) [Ex. 13.3A, 5-chloro-N^2-(1-methyl-1H-pyrazol-4-yl)-N^4-(2-azaspiro[4.5]decan-8-yl)pyrimidine-2,4-diamine] |  |
| 0.5 |  | 68.8 | 26.0 | 244 | 28.8 | 1.53 | N#CCC(=O)N1CC2CC(Nc3nc(Nc4cnn(CC5CC5)c4)ncc3Cl)CC2C1 (stereo not shown) [Ex. 46, 3-(5-((5-chloro-2-((1-(cyclopropylmethyl)-1H-pyrazol-4-yl)amino)pyrimidin-4-yl)amino)hexahydrocyclopenta[c]pyrrol-2(1H)-yl)-3-oxopropanenitrile] | half-life at 5 μM [1, 8]: 39.3 min; CLint scaled at 5 μM ([1]; pH 7.4, Human liver microsomes): 44.2 mL/min/kg; half-life at 5 μM [2, 9]: 20.6 min; CLint scaled at 5 μM ([2]; pH 7.4, Rat liver microsomes): 121 mL/min/kg |

| Structure (SMILES) | IC50 (JAK1 (h)) [nM] | IC50 (JAK2 (h)) [nM] | Clearance (CL) after iv dosing [3] [mL/min/kg] | F [3] [%] | AUC(0-t) [3] [ng·h/mL] | half-life [3] [min] | Vd [3] [L/kg] | other results |
| --- | --- | --- | --- | --- | --- | --- | --- | --- |
| Cc1cnc(Nc2cnn(C)c2)nc1NC1CCC2(CC1)CCN(C(=O)CC#N)C2 (stereo not shown) [Ex. 10, 3-(8-((5-methyl-2-((1-methyl-1H-pyrazol-4-yl)amino)pyrimidin-4-yl)amino)-2-azaspiro[4.5]decan-2-yl)-3-oxopropanenitrile] | 7 | 129 |  |  |  |  |  | half-life at 5 μM [1, 4]: 1510 min; CLint scaled at 5 μM [1, 5]: 1.15 mL/min/kg; half-life at 5 μM [2, 6]: 52.6 min; CLint scaled at 5 μM [2, 7]: 47.2 mL/min/kg |
| N#CCC(=O)N1CCC2(CCC(Nc3nc(Nc4cnn(CCO)c4)ncc3Cl)CC2)CC1 [Ex. 50, 3-(9-((5-chloro-2-((1-(2-hydroxyethyl)-1H-pyrazol-4-yl)amino)pyrimidin-4-yl)amino)-3-azaspiro[5.5]undecan-3-yl)-3-oxopropanenitrile] | 14 |  | 43.2 | 17.3 | 384 | 59.4 | 1.93 | half-life at 5 μM [1, 4]: 537 min; CLint scaled at 5 μM [1, 5]: 3.24 mL/min/kg; half-life at 5 μM [2, 6]: 308 min; CLint scaled at 5 μM [2, 7]: 8.07 mL/min/kg |
| CN(c1nc(Nc2cnn(C)c2)ncc1Cl)C1CCC2(CCCN(C(=O)CC#N)C2)C1 (stereo not shown) | 3 | 7 |  |  |  |  |  |  |
